Data from patent publication US20250034150A1, “BTK INHIBITORS” (BIOGEN MA INC., priority 2021, published 2025).
pIC50: −log10 of the molar value. Structures can show the parent of a compound that is named as a salt.

Target: T1, BTK (Homo sapiens, UniProt Q06187)
T1 construct: purchased Upstate 14-552
Experiment: In Vitro BTK Kinase Assay: Btk-PolyGAT-LS Assay
Format: biochemical
Conditions: active BTK enzyme 0.25 nM, polyGAT 100 nM, 30 minutes, TRF readout; read-out: In Vitro BTK Kinase Assay IC50 Score
Protocol: The purpose of the BTK in vitro assay is to determine compound potency against BTK through the measurement of IC50. Compound inhibition is measured after monitoring the amount of phosphorylation of a fluorescein-labeled polyGAT peptide (Invitrogen PV3611) in the presence of active BTK enzyme (Upstate 14-552), ATP, and inhibitor. The BTK kinase reaction was done in a black 96 well plate (costar 3694). For a typical assay, a 24 μL aliquot of a ATP/peptide master mix (final concentration; ATP […], polyGAT 100 nM) in kinase buffer (10 mM Tris-HCl pH 7.5, 10 mM MgCl2, 200 μM […], 5 mM DTT, 0.01% Triton X-100, and 0.2 mg/ml casein) is added to each well. Next, […] of a 4-fold, 40× compound titration in 100% DMSO solvent is added, followed by adding 15 μL of BTK enzyme mix in 1× kinase buffer (with a final concentration of 0.25 nM). The assay is incubated for 30 minutes before being stopped with 28 μL of a 50 mM EDTA solution. Aliquots (5 uL) of the kinase reaction are transferred to a low volume white 384 well plate (Coming 3674), and 5 μL of a 2× detection buffer (Invitrogen PV3574, with 4 nM Tb—PY20 antibody, Invitrogen PV3552) is added. The plate is covered and incubated for 45 minutes at room temperature. Time resolved fluorescence (TRF) on Molecular Devices M5 (332 nm excitation; 488 nm emission; 518 nm fluorescein emission) is measured. IC50 values are calculated using a four parameter fit with 100% enzyme activity determined from the DMSO control and 0% activity from the EDTA control.

T1 sequence (Q06187 whole entry): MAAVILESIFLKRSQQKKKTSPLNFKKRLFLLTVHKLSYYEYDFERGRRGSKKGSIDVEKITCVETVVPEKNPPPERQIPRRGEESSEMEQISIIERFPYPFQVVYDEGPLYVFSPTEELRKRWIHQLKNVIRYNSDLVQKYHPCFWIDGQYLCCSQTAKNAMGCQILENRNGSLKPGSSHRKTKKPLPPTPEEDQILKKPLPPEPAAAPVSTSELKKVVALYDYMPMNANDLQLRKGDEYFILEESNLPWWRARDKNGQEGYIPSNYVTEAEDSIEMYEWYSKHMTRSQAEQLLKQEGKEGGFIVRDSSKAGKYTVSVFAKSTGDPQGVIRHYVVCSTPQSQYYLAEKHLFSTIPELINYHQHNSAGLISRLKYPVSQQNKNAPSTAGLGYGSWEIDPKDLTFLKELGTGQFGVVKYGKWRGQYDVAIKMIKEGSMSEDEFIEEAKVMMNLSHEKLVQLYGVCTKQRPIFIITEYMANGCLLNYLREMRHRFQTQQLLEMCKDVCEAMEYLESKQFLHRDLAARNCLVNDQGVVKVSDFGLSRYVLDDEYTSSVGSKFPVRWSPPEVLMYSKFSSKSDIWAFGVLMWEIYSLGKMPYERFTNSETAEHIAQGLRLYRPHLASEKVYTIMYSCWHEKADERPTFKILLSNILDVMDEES

Structure (SMILES) | pIC50
Cc1cc(-c2nc(N3CCOCC3)cn3nccc23)ccc1CNC(=O)c1noc(C2(C)CC2)n1 [Example 126, N-(2-methyl-4-(6-morpholinopyrazolo[1,5-a]pyrazin-4-yl)benzyl)-5-(1-methylcyclopropyl)-1,2,4-oxadiazole-3-carboxamide] | 8.00 to 9.00
C[C@H]1C[C@@H](CNC(=O)c2cn(C(C)(C)C)nn2)CCN1c1nc(-c2cnn(C)c2)cn2nccc12 (single isomer, unassigned) [Example 142] | 6.00 to 8.00
CN1CCN(c2cn3nccc3c(-c3ccc(CNC(=O)c4nnc(C(C)(C)C)o4)c(F)c3)n2)CC1 [Example 127] | 6.00 to 8.00
Cn1cc(-c2cc(-c3ccc(CNC(=O)c4cnn(C(C)(C)C)c4)cc3)n3cnnc3c2)cn1 [Example 77, 1-(tert-butyl)-N-(4-(7-(1-methyl-1H-pyrazol-4-yl)-[1,2,4]triazolo[4,3-a]pyridin-5-yl)benzyl)-1H-pyrazole-4-carboxamide] | 6.00 to 8.00
Cn1cc(-c2cn3nccc3c(N3CCC(F)(CNC(=O)c4cn(C(C)(C)C)nn4)CC3)n2)cn1 [Example 162, 1-(tert-butyl)-N-((4-fluoro-1-(6-(1-methyl-1H-pyrazol-4-yl)pyrazolo[1,5-a]pyrazin-4-yl)piperidin-4-yl)methyl)-1H-1,2,3-triazole-4-carboxamide trifluoroacetate] | 6.00 to 8.00
Cn1cc(-c2cn3nccc3c(N3CCC(C)(CNC(=O)c4cn(C(C)(C)C)nn4)C3)n2)cn1 (centres unmarked) [Example 49, 1-(tert-butyl)-N-((3-methyl-1-(6-(1-methyl-1H-pyrazol-4-yl)pyrazolo[1,5-a]pyrazin-4-yl)pyrrolidin-3-yl)methyl)-1H-1,2,3-triazole-4-carboxamide] | 5.00 to 6.00
Cn1cc(-c2cn3nccc3c(-c3ccc(CNC(=O)c4ccn(C(C)(C)C)n4)cc3F)n2)cn1 [Example 111, 1-(tert-butyl)-N-(3-fluoro-4-(6-(1-methyl-1H-pyrazol-4-yl)pyrazolo[1,5-a]pyrazin-4-yl)benzyl)-1H-pyrazole-3-carboxamide] | 6.00 to 8.00
Cc1cc(-c2nc(N3CCN(C)CC3)cn3nccc23)ccc1CNC(=O)c1cnn(C(C)(C)C)n1 [Example 124, 2-(tert-butyl)-N-(2-methyl-4-(6-(4-methylpiperazin-1-yl)pyrazolo[1,5-a]pyrazin-4-yl)benzyl)-2H-1,2,3-triazole-4-carboxamide trifluoroacetate] | 6.00 to 8.00
CC(C)(C)n1cc(C(=O)NCc2ccc(-c3nc(N4CCOCC4)cn4nccc34)cc2)nn1 [Example 26, 1-(tert-butyl)-N-(4-(6-morpholinopyrazolo[1,5-a]pyrazin-4-yl)benzyl)-1H-1,2,3-triazole-4-carboxamide] | 6.00 to 8.00
C[C@@H]1CN(c2nc(-c3cnn(C)c3)cn3nccc23)CC[C@H]1CNC(=O)c1noc(C2(C)CC2)n1 (single isomer, unassigned) [Example 145] | 6.00 to 8.00
Cn1cc(-c2cn3nccc3c(-c3ccc(CNC(=O)c4ccn(C(C)(C)C)n4)c(C(F)F)c3)n2)cn1 [Example 103, 1-(tert-butyl)-N-(2-(difluoromethyl)-4-(6-(1-methyl-1H-pyrazol-4-yl)pyrazolo[1,5-a]pyrazin-4-yl)benzyl)-1H-pyrazole-3-carboxamide] | 8.00 to 9.00
Cc1cc(-c2nc(N3CCN(C)CC3)cn3nccc23)ccc1CNC(=O)c1noc(C2(C)CC2)n1 [Example 131, N-(2-methyl-4-(6-(4-methylpiperazin-1-yl)pyrazolo[1,5-a]pyrazin-4-yl)benzyl)-5-(1-methylcyclopropyl)-1,2,4-oxadiazole-3-carboxamide trifluoroacetate] | 8.00 to 9.00
C[C@H]1C[C@H](CNC(=O)c2cn(C(C)(C)C)nn2)CCN1c1nc(-c2cnn(C)c2)cn2nccc12 (single isomer, unassigned) [Example 140] | 6.00 to 8.00
CC(C)CN1CCN(CC2CCN(c3nc(-c4cnn(C)c4)cn4nccc34)CC2)C(=O)C1 [Example 168, 4-isobutyl-1-((1-(6-(1-methyl-1H-pyrazol-4-yl)pyrazolo[1,5-a]pyrazin-4-yl)piperidin-4-yl)methyl)piperazin-2-one] | 6.00 to 8.00
